In US4076704A, “Dipeptide derivatives and their production” (Shionogi & Co., Ltd., priority 1974, dated 1978):

Legend:
Format in all cases: in vivo
DS male mice [1] = test: Anti-pentylenetetrazol activity; conditions: compound given orally 60 minutes prior to 125 mg/kg s.c. pentylenetetrazol, complete protection against mortality, observed 2 hours
Text: 1. Anti-pentylenetetrazol activity
The convulsions were disregarded.

DS male mice [2] = test: Rotarod performance activity; conditions: fall from rod within less than 2 minutes
Method: 3. Rotarod performance activity:
(§1) This test was measured on DS male mice.
The mouse was put on a scraped rod of wood, 3 cm in diameter, turning at the rate of five rotations per minute. The mice that could remain on the rod for 3 or more minutes in successive trails were selected and placed in a group of 10 mice for each dose. If the mouse fell down from the rod within less than 2 minutes, the test compound was considered to be effective. Results were shown by ED50 [Dunham, et al.: J. Am. Pharm. Assoc., 46, 208 (1957)].

DS male mice [3] = test: Taming activity (inhibition of electroshock-induced fighting); conditions: compound administered 60 minutes prior, inhibition of fighting responses, 5 pairs
Method: as §1
These pairs of mice were selected in the morning and used for drug test in the afternoon. The test compound was administered to both mice of the pairs 60 minutes prior to the experiment. Results were obtained as the mean percentage of inhibition of fighting responses in a group of 5 pairs and shown by ED50 [Tedeschi, et al.: J. Pharmacol Exp. Thev., 125, 28-34 (1959)].

Row | Structure (SMILES) | Anti-pentylenetetrazol activity, ED50 (DS male mice [1]) | Rotarod performance ED50 (DS male mice [2]) | Taming activity ED50 (DS male mice [3])
1 | CN(C(=O)CNC(=O)CN)c1ccc(Cl)cc1C(=O)c1ccccc1 [Compound 1, 2-benzoyl-4-chloro-N-methyl-N^α -glycyl-glycinanilide] | 1.0 mg/kg |  | 
2 | CN(C(=O)CNC(=O)CN)c1ccc(Cl)cc1C(=O)c1ccccc1F.Cl [Compound 3, 2-o-fluorobenzoyl-4-chloro-N-methyl-N^α -glycyl-glycinanilide hydrochloride] | 0.33 mg/kg | 17.0 mg/kg | 1.6 mg/kg
3 | CNC1=Nc2ccc(Cl)cc2C(c2ccccc2)=[N+]([O-])C1 [Compound 4, Chlordiazepoxide, reference compound] |  | 50.0 mg/kg | 
4 | CN(C(=O)CNC(=O)CN)c1ccc(Cl)cc1C(=O)c1ccccc1Cl.O [Compound 2, 2-o-chlorobenzoyl-4-chloro-N-methyl-N^α -glycyl-glycinanilide hydrate] | 0.58 mg/kg |  | 3.0 mg/kg
